# Biological target: PD-1/PD-L1 interaction (PD-1-Ig / PD-L1-His) (Homo sapiens (Human), UniProt Q9NZQ7)
# Experiment: PD-1/PD-L1 Homogenous Time-Resolved Fluorescence (HTRF) binding assay
# Settings: PD-1/PD-L1 HTRF binding assay; value given as range class; read-out: Range or IC50
# Outline: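 HTRF detection used 1 nM europium-cryptate anti-Ig and 20 nM APC anti-His. Compounds first saw 10 nM PD-L1-His for 15 min, and 20 nM PD-1-Ig was then added for another 15 min. Buffer was dPBS plus 0.1% BSA and 0.05% Tween-20. All concentrations are final.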
# PD-1/PD-L1 interaction (PD-1-Ig / PD-L1-His), sequence (Q9NZQ7 other isoform, or with tags, fused parts or gaps): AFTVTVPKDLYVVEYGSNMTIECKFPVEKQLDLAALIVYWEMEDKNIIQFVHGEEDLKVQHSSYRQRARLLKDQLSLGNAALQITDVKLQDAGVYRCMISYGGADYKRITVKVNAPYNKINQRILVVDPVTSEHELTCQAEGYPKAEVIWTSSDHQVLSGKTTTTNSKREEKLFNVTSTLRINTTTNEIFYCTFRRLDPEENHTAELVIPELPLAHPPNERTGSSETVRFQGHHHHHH
row,IC50 [nM],SMILES
1,0.6 to 10,"Cc1cc(CN[C@H](CO)C(=O)O)c(OCc2cncc(C#N)c2)cc1OCc1cccc(-c2ccc3c(c2)OCCO3)c1Cl [Example 1153, (R)-2-(4-(2-chloro-3-(2,3-dihydrobenzo[b][1,4]dioxin-6-yl)benzyloxy)-2-((5-cyanopyridin-3-yl)methoxy)-5-methylbenzylamino)-3-hydroxypropanoic acid]"
2,0.6 to 10,"Cc1cc(CN[C@@](C)(CO)C(=O)O)c(OCc2cncc(C#N)c2)cc1OCc1cccc(-c2ccc3c(c2)OCCO3)c1Cl [Example 1154, (S)-2-(4-(2-chloro-3-(2,3-dihydrobenzo[b][1,4]dioxin-6-yl)benzyloxy)-2-((5-cyanopyridin-3-yl)methoxy)-5-methylbenzylamino)-3-hydroxy-2-methylpropanoic acid]"
3,0.6 to 10,"Cc1cc(CN2CCCC[C@@H]2C(=O)O)c(OCc2cncc(C#N)c2)cc1OCc1cccc(-c2ccc3c(c2)OCCO3)c1Cl [Example 1155, (R)-1-(4-(2-chloro-3-(2,3-dihydrobenzo[b][1,4]dioxin-6-yl)benzyloxy)-2-((5-cyanopyridin-3-yl)methoxy)-5-methylbenzyl)piperidine-2-carboxylic acid]"
4,0.6 to 10,"Cc1cc(CN[C@](C)(CO)C(=O)O)c(OCc2cncc(C#N)c2)cc1OCc1cccc(-c2ccc3c(c2)OCCO3)c1Cl [Example 1156, (R)-2-(4-(2-chloro-3-(2,3-dihydrobenzo[b][1,4]dioxin-6-yl)benzyloxy)-2-((5-cyanopyridin-3-yl)methoxy)-5-methylbenzylamino)-3-hydroxy-2-methylpropanoic acid]"
5,0.6 to 10,"Cc1c(COc2cc(OCc3cccc(C#N)c3)c(CN[C@H](CO)C(=O)O)cc2Cl)cccc1-c1ccc2c(c1)OCCO2 [Example 1157, (R)-2-((5-chloro-2-((3-cyanobenzyl)oxy)-4-((3-(2,3-dihydrobenzo[b][1,4]dioxin-6-yl)-2-methylbenzyl)oxy)benzyl)amino)-3-hydroxypropanoic acid]"
6,0.6 to 10,"Cc1c(COc2cc(OCc3cccc(C#N)c3)c(CN[C@@H](CC(=O)O)C(=O)O)cc2Cl)cccc1-c1ccc2c(c1)OCCO2 [Example 1158, (S)-2-((5-chloro-2-((3-cyanobenzyl)oxy)-4-((3-(2,3-dihydrobenzo[b][1,4]dioxin-6-yl)-2-methylbenzyl)oxy)benzyl)amino)succinic acid]"
7,10 to 100,"Cc1c(COc2cc(OCc3cccc(C#N)c3)c(CNC(Cc3cccc(O)c3)C(=O)O)cc2Cl)cccc1-c1ccc2c(c1)OCCO2 (stereo not shown) [Example 1159, 2-((5-chloro-2-((3-cyanobenzyl)oxy)-4-((3-(2,3-dihydrobenzo[b][1,4]dioxin-6-yl)-2-methylbenzyl)oxy)benzyl)amino)-3-(3-hydroxyphenyl)propanoic acid]"
8,10 to 100,"CSC[C@H](NCc1cc(Cl)c(OCc2cccc(-c3ccc4c(c3)OCCO4)c2C)cc1OCc1cccc(C#N)c1)C(=O)O [Example 1160, (R)-2-((5-chloro-2-((3-cyanobenzyl)oxy)-4-((3-(2,3-dihydrobenzo[b][1,4]dioxin-6-yl)-2-methylbenzyl)oxy)benzyl)amino)-3-(methylthio)propanoic acid]"
9,10 to 100,"Cc1c(COc2cc(OCc3cccc(C#N)c3)c(CN[C@@H](C(=O)O)c3ccc(O)cc3)cc2Cl)cccc1-c1ccc2c(c1)OCCO2 [Example 1161, (R)-2-((5-chloro-2-((3-cyanobenzyl)oxy)-4-((3-(2,3-dihydrobenzo[b][1,4]dioxin-6-yl)-2-methylbenzyl)oxy)benzyl)amino)-2-(4-hydroxyphenyl)acetic acid]"
10,100 to 20000,"Cc1c(COc2cc(OCc3cccc(C#N)c3)c(CNC(C(=O)O)C(F)(F)F)cc2Cl)cccc1-c1ccc2c(c1)OCCO2 (stereo not shown) [Example 1162, 2-((5-chloro-2-((3-cyanobenzyl)oxy)-4-((3-(2,3-dihydrobenzo[b][1,4]dioxin-6-yl)-2-methylbenzyl)oxy)benzyl)amino)-3,3,3-trifluoropropanoic acid]"
11,0.6 to 10,"Cc1c(COc2cc(OCc3cccc(C#N)c3)c(CN[C@@H](C(=O)O)[C@@H](C)O)cc2Cl)cccc1-c1ccc2c(c1)OCCO2 [Example 1163, (2R,3R)-2-((5-chloro-2-((3-cyanobenzyl)oxy)-4-((3-(2,3-dihydrobenzo[b][1,4]dioxin-6-yl)-2-methylbenzyl)oxy)benzyl)amino)-3-hydroxybutanoic acid]"
12,0.6 to 10,"Cc1c(COc2cc(OCc3cccc(C#N)c3)c(CNC(Cc3c[nH]cn3)C(=O)O)cc2Cl)cccc1-c1ccc2c(c1)OCCO2 (stereo not shown) [Example 1164, 2-((5-chloro-2-((3-cyanobenzyl)oxy)-4-((3-(2,3-dihydrobenzo[b][1,4]dioxin-6-yl)-2-methylbenzyl)oxy)benzyl)amino)-3-(1H-imidazol-4-yl)propanoic acid]"
13,0.6 to 10,"Cc1c(COc2cc(OCc3cccc(C#N)c3)c(CN3CCCC3C(=O)O)cc2Cl)cccc1-c1ccc2c(c1)OCCO2 (stereo not shown) [Example 1165, 1-(5-chloro-2-((3-cyanobenzyl)oxy)-4-((3-(2,3-dihydrobenzo[b][1,4]dioxin-6-yl)-2-methylbenzyl)oxy)benzyl)pyrrolidine-2-carboxylic acid]"
14,10 to 100,"Cc1c(COc2cc(OCc3cccc(C#N)c3)c(CNC(Cc3c[nH]c4ccc(O)cc34)C(=O)O)cc2Cl)cccc1-c1ccc2c(c1)OCCO2 (stereo not shown) [Example 1167, 2-((5-chloro-2-((3-cyanobenzyl)oxy)-4-((3-(2,3-dihydrobenzo[b][1,4]dioxin-6-yl)-2-methylbenzyl)oxy)benzyl)amino)-3-(5-hydroxy-1H-indol-3-yl)propanoic acid]"
15,100 to 20000,"Cc1c(COc2cc(OCc3cccc(C#N)c3)c(CNC(Cc3cn(C)c4ccccc34)C(=O)O)cc2Cl)cccc1-c1ccc2c(c1)OCCO2 (stereo not shown) [Example 1168, 2-((5-chloro-2-((3-cyanobenzyl)oxy)-4-((3-(2,3-dihydrobenzo[b][1,4]dioxin-6-yl)-2-methylbenzyl)oxy)benzyl)amino)-3-(1-methyl-1H-indol-3-yl)propanoic acid]"
16,0.6 to 10,"Cc1c(COc2cc(OCc3cccc(C#N)c3)c(CN[C@H](C)C(=O)O)cc2Cl)cccc1-c1ccc2c(c1)OCCO2 [Example 1169, (R)-2-((5-chloro-2-((3-cyanobenzyl)oxy)-4-((3-(2,3-dihydrobenzo[b][1,4]dioxin-6-yl)-2-methylbenzyl)oxy)benzyl)amino)propanoic acid]"
17,0.6 to 10,"Cc1c(COc2cc(OCc3cccc(C#N)c3)c(CNCCO)cc2Cl)cccc1-c1ccc2c(c1)OCCO2 [Example 1170, 3-((4-chloro-5-((3-(2,3-dihydrobenzo[b][1,4]dioxin-6-yl)-2-methylbenzyl)oxy)-2-(((2-hydroxyethyl)amino)methyl)phenoxy)methyl)benzonitrile]"
18,10 to 100,"Cc1c(COc2cc(OCc3cccc(C#N)c3)c(CN(Cc3ccccc3)[C@@H](CO)C(=O)O)cc2Cl)cccc1-c1ccc2c(c1)OCCO2 [Example 1171, (S)-2-(benzyl(5-chloro-2-((3-cyanobenzyl)oxy)-4-((3-(2,3-dihydrobenzo[b][1,4]dioxin-6-yl)-2-methylbenzyl)oxy)benzyl)amino)-3-hydroxypropanoic acid]"
19,0.6 to 10,"Cc1c(COc2cc(OCc3cccc(C#N)c3)c(CNC(CN(C)C)C(=O)O)cc2Cl)cccc1-c1ccc2c(c1)OCCO2 (stereo not shown) [Example 1172, 2-((5-chloro-2-((3-cyanobenzyl)oxy)-4-((3-(2,3-dihydrobenzo[b][1,4]dioxin-6-yl)-2-methylbenzyl)oxy)benzyl)amino)-3-(dimethylamino)propanoic acid]"

# — patent US9850225B2, “Compounds useful as immunomodulators” (BRISTOL-MYERS SQUIBB COMPANY, priority 2014, dated 2017)
